Source: US10770169B2, “Method of providing a treatment to a subject based on a dynamic pathway map” (THE REGENTS OF THE UNIVERSITY OF CALIFORNIA, priority 2010, dated 2020)
“Also recorded” adds a separate entry of the source.

Columns and labels:
[1] = system: luminal, basal, claudin-low and ERBB2AMP breast cancer cell lines; test: Associations of clinically relevant subtypes and response (non-parametric ANOVA or t-test on GI50 ranks); assay type: cell-based, human
Procedure, shortened: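 Significance was set at FDR p<0.20 after combining p-values across three test sets. Subtype–response associations came from rank-based non-parametric ANOVA or t-tests on GI50. For three-class comparisons, post-hoc tests of each group against the rest identified the most sensitive group, with FDR correction.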

[2] = system: panel of 55 breast cancer cell lines; test: Cell growth inhibition assay (Cell Titer Glo, 72 h, 9 doses; GI50, TGI, LC50); assay type: cell-based, human; conditions: value is the negative log10 of mol/L

For `O=c1[nH]c2ccccc2n1C1CCN(Cc2ccc(-c3nc4cc5[nH]cnc5cc4nc3-c3ccccc3)cc2)CC1` [Sigma AKT1-2 inhibitor], the “subtype-specific response (sensitivity by transcriptional subtype)” value ([1]; GI50 across subtypes) was “highest in luminal and ERBB2^AMP and lower in basal and claudin-low breast cancer cell lines; also recorded: Luminal and ERBB2AMP cell lines preferentially respond”, the Subtype specificity ([1]; Table 6, most sensitive subtype, FDR p<0.20) was “Luminal/ERBB2AMP” and the GI50 ([2]; AU565 cell line, censored GI50 values) was 5.61. For the same compound, the GI50 ([2]; BT20 cell line, censored GI50 values) was 5.00, the GI50 ([2]; BT474 cell line, censored GI50 values) was 6.08 and the GI50 ([2]; BT483 cell line, censored GI50 values) was 6.08. The GI50 ([2]; CAMA1 cell line, censored GI50 values) was 5.59, the GI50 ([2]; HCC38 cell line, censored GI50 values) was 4.98 and the GI50 ([2]; HCC70 cell line, censored GI50 values) was 5.74. It also gave a GI50 ([2]; HCC1143 cell line, censored GI50 values) of 4.87, a GI50 ([2]; HCC1187 cell line, censored GI50 values) of 5.47 and a GI50 ([2]; HCC1419 cell line, censored GI50 values) of 6.03. For the same compound, the GI50 ([2]; HCC1428 cell line, censored GI50 values) was 5.35, the GI50 ([2]; HCC1500 cell line, censored GI50 values) was 4.89 and the GI50 ([2]; HCC1806 cell line, censored GI50 values) was 5.05. The GI50 ([2]; HCC1937 cell line, censored GI50 values) was 5.00, the GI50 ([2]; HCC1954 cell line, censored GI50 values) was 5.08 and the GI50 ([2]; HCC2185 cell line, censored GI50 values) was 5.75. It also gave a GI50 ([2]; HCC3153 cell line, censored GI50 values) of 4.99, a GI50 ([2]; LY2 cell line, censored GI50 values) of 5.77 and a GI50 ([2]; MCF7 cell line, censored GI50 values) of 5.78. It also gave a GI50 ([2]; MDAMB134VI cell line, censored GI50 values) of 5.02, a GI50 ([2]; MDAMB175VII cell line, censored GI50 values) of 5.51 and a GI50 ([2]; MDAMB361 cell line, censored GI50 values) of 6.05. It also gave a GI50 ([2]; MDAMB415 cell line, censored GI50 values) of 4.95, a GI50 ([2]; MDAMB436 cell line, censored GI50 values) of 4.47 and a GI50 ([2]; MDAMB453 cell line, censored GI50 values) of 5.73. It also gave a GI50 ([2]; MDAMB468 cell line, censored GI50 values) of 5.01, a GI50 ([2]; SKBR3 cell line, censored GI50 values) of 5.68 and a GI50 ([2]; SUM52PE cell line, censored GI50 values) of 5.81. It also gave a GI50 ([2]; SUM149PT cell line, censored GI50 values) of 5.03, a GI50 ([2]; SUM159PT cell line, censored GI50 values) of 5.17 and a GI50 ([2]; SUM185PE cell line, censored GI50 values) of 5.95. For the same compound, the GI50 ([2]; SUM225CWN cell line, censored GI50 values) was 6.05, the GI50 ([2]; SUM1315MO2 cell line, censored GI50 values) was 5.33 and the GI50 ([2]; T47D cell line, censored GI50 values) was 5.78. It also gave a GI50 ([2]; UACC812 cell line, censored GI50 values) of 5.53, a GI50 ([2]; ZR75B cell line, censored GI50 values) of 5.93 and a GI50 ([2]; ZR751 cell line, censored GI50 values) of 5.94. The GI50 ([2]; cell line AU565) was 5.61, the GI50 ([2]; cell line BT20) was 5.00 and the GI50 ([2]; cell line BT474) was 6.08. For the same compound, the GI50 ([2]; cell line BT483) was 6.08, the GI50 ([2]; cell line CAMA1) was 5.59 and the GI50 ([2]; cell line HCC38) was 4.98. For the same compound, the GI50 ([2]; cell line HCC70) was 5.74, the GI50 ([2]; cell line HCC1143) was 4.87 and the GI50 ([2]; cell line HCC1187) was 5.47. The GI50 ([2]; cell line HCC1419) was 6.03, the GI50 ([2]; cell line HCC1428) was 5.35 and the GI50 ([2]; cell line HCC1500) was 4.89. The GI50 ([2]; cell line HCC1806) was 5.05, the GI50 ([2]; cell line HCC1937) was 5.00 and the GI50 ([2]; cell line HCC1954) was 5.08. The GI50 ([2]; cell line HCC2185) was 5.75, the GI50 ([2]; cell line HCC3153) was 4.99 and the GI50 ([2]; cell line LY2) was 5.77. The GI50 ([2]; cell line MCF7) was 5.78, the GI50 ([2]; cell line MDAMB134V) was 5.02 and the GI50 ([2]; cell line MDAMB175V) was 5.51. The GI50 ([2]; cell line MDAMB361) was 6.05, the GI50 ([2]; cell line MDAMB415) was 4.95 and the GI50 ([2]; cell line MDAMB436) was 4.47. For the same compound, the GI50 ([2]; cell line MDAMB453) was 5.73, the GI50 ([2]; cell line MDAMB468) was 5.01 and the GI50 ([2]; cell line SKBR3) was 5.68. It also gave a GI50 ([2]; cell line SUM52PE) of 5.81, a GI50 ([2]; cell line SUM149PT) of 5.03 and a GI50 ([2]; cell line SUM159PT) of 5.17. The GI50 ([2]; cell line SUM185PE) was 5.95, the GI50 ([2]; cell line SUM225CWN) was 6.05 and the GI50 ([2]; cell line SUM1315MO) was 5.33. It also gave a GI50 ([2]; cell line T47D) of 5.78, a GI50 ([2]; cell line UACC812) of 5.53 and a GI50 ([2]; cell line ZR75B) of 5.93. It also gave a GI50 ([2]; cell line ZR751) of 5.94.
